Measurements from paper PMC11613329, “An Optimized Marinopyrrole A Derivative Targets 6-Phosphoglucosamine Synthetase to Inhibit Methicillin-Resistant Staphylococcus aureus” (ACS Central Science, 2024).

Key:
[1] = target: T1, 6-Phosphoglucosamine synthetase (GlmS) (Staphylococcus aureus, UniProt Q5HE49); assay: SPR with purified GlmS; also thermal stability shift and enzymatic inhibition (IC50 […]); type: binding
T1 sequence (Q5HE49 2-601): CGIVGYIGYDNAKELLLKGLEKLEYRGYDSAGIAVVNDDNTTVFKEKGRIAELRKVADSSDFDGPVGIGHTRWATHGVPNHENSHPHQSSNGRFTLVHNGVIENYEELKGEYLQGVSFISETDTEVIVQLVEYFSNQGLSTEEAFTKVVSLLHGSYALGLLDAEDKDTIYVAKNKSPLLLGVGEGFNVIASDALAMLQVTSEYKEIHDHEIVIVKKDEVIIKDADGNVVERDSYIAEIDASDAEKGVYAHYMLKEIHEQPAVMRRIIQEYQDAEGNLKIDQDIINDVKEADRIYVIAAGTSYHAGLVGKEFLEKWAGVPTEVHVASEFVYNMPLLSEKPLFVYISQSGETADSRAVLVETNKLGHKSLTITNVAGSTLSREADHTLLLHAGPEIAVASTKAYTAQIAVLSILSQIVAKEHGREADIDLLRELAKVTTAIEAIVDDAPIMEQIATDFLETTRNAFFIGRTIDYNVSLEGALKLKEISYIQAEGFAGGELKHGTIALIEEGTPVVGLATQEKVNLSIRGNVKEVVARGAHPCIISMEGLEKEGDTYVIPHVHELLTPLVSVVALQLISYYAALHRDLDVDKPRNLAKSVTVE

[2] = target: T1, 6-Phosphoglucosamine synthetase (GlmS); assay: in vitro GlmS enzymatic assay, positive control; type: biochemical

O=C(c1ccc(C(F)(F)F)cc1O)c1[nH]c(Cl)c(Cl)c1-n1c(C(=O)c2ccc(C(F)(F)F)cc2O)cc(Cl)c1Cl [MA-D1]
Kd [1]: 390 nM

COC(=O)/C=C/C(=O)NC[C@H](N)C(=O)O [FMDP, N^3-(4-metoxyfumaroyl)-(S)-2,3-diaminopropanoic acid]
in vitro GlmS enzymatic assay, positive control [2]: The reported FMDP was used as a positive control.
